Data set [1] relates to MCP-1 stimulated Ser473 p-Akt production in THP-1 monocytes. Kind of data set: THP-1 signaling assay, MCP-1 stimulated Ser473 p-Akt. The format is cell-based. As to conditions: 100nM MCP-1 for 5 minutes, FACS.
The subject of data set [2] is M-CSF stimulated Ser473 p-Akt production in THP-1 monocytes. Kind of data set: THP-1 signaling assay, M-CSF stimulated Ser473 p-Akt. The format is cell-based. The settings on record: 50ng/mL CSF-1 for 7 minutes, FACS.
Another data set concerns the target T1, PI3Kδ (Homo sapiens, UniProt O00329).
T1 sequence (O00329 1-1044): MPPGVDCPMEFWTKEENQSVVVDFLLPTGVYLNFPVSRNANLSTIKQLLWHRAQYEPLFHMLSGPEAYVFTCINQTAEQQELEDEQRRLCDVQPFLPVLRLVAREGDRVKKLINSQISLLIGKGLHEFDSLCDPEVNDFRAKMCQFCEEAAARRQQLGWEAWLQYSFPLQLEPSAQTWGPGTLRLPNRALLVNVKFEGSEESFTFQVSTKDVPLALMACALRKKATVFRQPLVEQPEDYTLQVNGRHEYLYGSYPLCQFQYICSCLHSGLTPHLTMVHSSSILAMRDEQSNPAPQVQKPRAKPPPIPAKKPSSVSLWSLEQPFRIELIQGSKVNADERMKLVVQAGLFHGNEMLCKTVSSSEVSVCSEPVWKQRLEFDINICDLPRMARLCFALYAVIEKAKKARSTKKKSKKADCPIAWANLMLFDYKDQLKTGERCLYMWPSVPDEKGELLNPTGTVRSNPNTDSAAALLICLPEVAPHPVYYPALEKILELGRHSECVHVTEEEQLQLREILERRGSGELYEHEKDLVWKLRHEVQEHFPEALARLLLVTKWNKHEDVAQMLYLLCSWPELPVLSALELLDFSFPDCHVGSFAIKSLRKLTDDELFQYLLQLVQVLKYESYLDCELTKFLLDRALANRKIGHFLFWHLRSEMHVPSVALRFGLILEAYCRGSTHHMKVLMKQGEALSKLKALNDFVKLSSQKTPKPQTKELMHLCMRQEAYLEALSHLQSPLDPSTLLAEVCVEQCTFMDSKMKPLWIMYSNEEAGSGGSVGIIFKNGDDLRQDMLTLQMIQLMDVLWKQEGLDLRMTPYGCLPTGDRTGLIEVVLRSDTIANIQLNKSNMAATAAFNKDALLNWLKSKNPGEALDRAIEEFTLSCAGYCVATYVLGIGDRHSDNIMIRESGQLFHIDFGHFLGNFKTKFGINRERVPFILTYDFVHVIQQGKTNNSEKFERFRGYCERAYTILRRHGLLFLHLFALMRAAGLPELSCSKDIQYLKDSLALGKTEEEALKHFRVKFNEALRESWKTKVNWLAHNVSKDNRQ
Kind of data set: Class I PI3K kinase assay. The settings on record: biochemical assay, 10μM ATP.

A further data set has as its system all PI3K isoforms. As to conditions: at 300nM; ref Camps et al., 2005; cited from earlier work.
The test system of data set [3] is PBMC/HUVEC co-culture. The format is cell-based, human.
Data set [4] concerns PBMC/HUVEC co-culture.

This is an account of results in article PMC2858875 (Chemistry & biology, 2010).

Molecules are shown by their SMILES. Where only a bound is given, the exact number is not on record here.

Consider `O=C1NC(=O)/C(=C\c2ccc3nccnc3c2)S1` [AS605240], for which the “block of MCP-1 stimulated Ser473 p-Akt production” value in data set [1] was “blocked”. The “block of M-CSF stimulated Ser473 p-Akt production” value in data set [2] is on record as “ineffective”. The “potency against PI3Kδ (in words)” value at PI3Kδ is reported as “do not significantly inhibit PI3Kδ at the doses tested”. In the data set with all PI3K isoforms, the “inhibition of all PI3K isoforms” value is on record as “inhibits all PI3K isoforms”.
Turning to `COc1ccc2c(c1OC)N=C(NC(=O)c1cccnc1)N1CCN=C21` [PIK90], in the data set on PBMC/HUVEC co-culture [3], the CCL2/MCP-1 production result was “modest effects”, the CD38 production result is reported as “modest effects” and the PBMC proliferation entry is recorded as “decrease”. Further, in the data set with PBMC/HUVEC co-culture [4], the cell viability result was “little effect”. Further, the CD40 level entry in the data set on PBMC/HUVEC co-culture [4] (LPS system) was “significantly reduced”. For the same compound, the “HUVEC viability: sulforhodamine B (SRB) protein binding” value in the data set with HUVECs is below -0.3 log ratio. For the same compound, in the data set on HUVECs (3C system), the HLA-DR level entry is reported as “strongly inhibited” and the “urokinase receptor (CD87/uPAR) level” value is recorded as “strongly inhibited”. Also, the HUVEC proliferation result with HUVECs (HUVEC-only culture) was “inhibited HUVEC proliferation”.
For the compound `Cc1ccccc1-n1c(Cn2cnc3c(N)ncnc32)nc2cccc(C)c2c1=O` [IC87114], the “E-selectin expression in directly stimulated HUVECs” value with HUVECs (3C system) is reported as “did not inhibit E-selectin expression”.
